Measured values as given in US8993574B2, “Pyrrole antifungal agents” (F2G Ltd, priority 2008, dated 2015).
Values after ≈ are worked out from the molar mass of the structure shown.

Key:
Type in all cases: cell-based
[1] = tested on: Aspergillus fumigatus AF210; test: MIC, YAG medium; settings: 24 h at 35° C, MIC banded into grades; for MIC: Aspergillus fumigatus, read-out: MIC grade, A. fumigatus 210
Protocol: (§1) Between 1 and 5 mgs of compound were accurately weighed out into a sterile Eppendorf tube. The compound was dissolved in DMSO to give a solution containing 5 mg/mL. Tubes were stored at −20° C. until required.
(§2) On the day of testing thawed solutions were vortex mixed to ensure homogeneity. 30 μL of solution was removed and added to 570 μL of sterile water in a separate sterile Eppendorf. The thoroughly mixed solution was used to prepare a series of doubling dilutions in water, in a deep well plate. Thirteen replicate plates were prepared using a Minitrak by aspirating 20 μL from each well into eleven clear polystyrene 96 well plates.
(§3) Spores of Aspergillus spp. (Aspergillus fumigatus [two strains], Aspergillus terreus [two strains], Aspergillus niger and Aspergillus flavus) were harvested from cultures grown on Sabarauds agar for 5 days, and resuspended in PBS/Tween 80 to approx 1×10^7 cfu/mL. Each organism suspension was diluted in YAG medium (1% glucose, 1% ammonium chloride and 0.5% yeast extract) to 0.5−2×10^4 cfu/mL. 80 μL of an organism suspension was added to each well of the plate containing drug dilutions.
(§4) This produced MIC plates with a drug range 50-0.05 mg/L and organism inocula of 1−2×10^4 cfu/mL for Aspergillus spp. All plates were incubated for 24 h at 35° C. Growth was assessed by monitoring the optical density at 485 nm for each well. The MIC of a compound is the lowest drug concentration that inhibits growth of an organism by >70% compared with a drug free control. MICs are recorded as mg/L. In cases where the MIC of an organism is […] mg/L the MIC is repeated using a concentration range of 0.5-0.0005 mg/L.
(§5) The following organisms were tested: Aspergillus flavus, Aspergillus fumigatus AF293 and AF210, Aspergillus niger, Aspergillus terreus AT4 and AT49, Candida albicans, Candida glabrata, Candida krusei, Candida parapsilosis and Candida tropicalis.

[2] = tested on: Aspergillus fumigatus AF293; test: MIC, YAG medium; settings: 24 h at 35° C, MIC banded into grades; for MIC: Aspergillus fumigatus, read-out: MIC grade, A. fumigatus
Protocol: as §1, §2, §3, §4, §5

[3] = tested on: Aspergillus flavus; test: MIC, YAG medium; settings: 24 h at 35° C, MIC banded into grades; for MIC: Aspergillus flavus, 24 h, read-out: MIC grade, A. flavus
Protocol: as §1, §2, §3, §4, §5

[4] = tested on: Aspergillus terreus AT49; test: MIC, YAG medium; settings: 24 h at 35° C, MIC banded into grades; for MIC: Aspergillus terreus, read-out: MIC grade, A. terreus 49
Protocol: as §1, §2, §3, §4, §5

[5] = tested on: Aspergillus terreus AT4; test: MIC, YAG medium; settings: 24 h at 35° C, MIC banded into grades; for MIC: Aspergillus terreus, read-out: MIC grade, A. terreus
Protocol: as §1, §2, §3, §4, §5

[6] = tested on: Aspergillus niger; test: MIC, YAG medium; settings: 24 h at 35° C, MIC banded into grades; for MIC: Aspergillus niger, read-out: MIC grade, A. niger
Protocol: as §1, §2, §3, §4, §5

[7] = tested on: Aspergillus fumigatus AF210; test: MIC, RPMI medium; settings: for MIC: Aspergillus fumigatus, AF210, MIC banded into grades, read-out: MIC grade, A. fumigatus 210
Protocol: as §1, §2
(§6) Assays were also performed in RPMI medium for both Aspergillus spp. (strains described above) and Candida spp. (Candida albicans, Candida glabrata, Candida krusei, Candida parapsilosis and Candida tropicalis). To perform MIC tests in this medium, dilutions of compounds are prepared in microtitre plates as described above. Fungal strains to be tested are grown and harvested in an identical manner to that described above, and each organism suspension was diluted in RPMI medium, containing 2% glucose and 0.135 M MOPS buffer (pH 7.0) to 0.5-2×10^4 cfu/mL, rather than in YAG medium. 80 μL of an organism suspension was added to each well of the plate containing drug dilutions.
(§7) This produced MIC plates with a drug range 50-0.05 mg/L and organism inocula of 1−2×10^4 cfu/mL. All plates were incubated for 24-48 h at 35° C. Growth was assessed by monitoring the optical density at 485 nm for each well. The MIC of a compound is the lowest drug concentration that inhibits growth of an organism by >80% compared with a drug free control.
as §5

[8] = tested on: Aspergillus fumigatus AF293; test: MIC, RPMI medium; settings: for MIC: Aspergillus fumigatus, AF293, MIC banded into grades, read-out: MIC grade, A. fumigatus
Protocol: as §1, §2, §6, §7, §5

[9] = tested on: Aspergillus flavus; test: MIC, RPMI medium; settings: MIC banded into grades; for MIC: Aspergillus flavus, read-out: MIC grade, A. flavus
Protocol: as §1, §2, §6, §7, §5

[10] = tested on: Aspergillus terreus AT49; test: MIC, RPMI medium; settings: for MIC: Aspergillus terreus, AT49, MIC banded into grades, read-out: MIC grade, A. terreus 49
Protocol: as §1, §2, §6, §7, §5

[11] = tested on: Aspergillus terreus AT4; test: MIC, RPMI medium; settings: for MIC: Aspergillus terreus, AT4, MIC banded into grades, read-out: MIC grade, A. terreus
Protocol: as §1, §2, §6, §7, §5

[12] = tested on: Aspergillus niger; test: MIC, RPMI medium; settings: MIC banded into grades; for MIC: Aspergillus niger, read-out: MIC grade, A. niger
Protocol: as §1, §2, §6, §7, §5

Row | Structure (SMILES) | MIC [1] [µg/mL] | MIC [2] [µg/mL] | MIC [3] [µg/mL] | MIC [4] [µg/mL] | MIC [5] [µg/mL] | MIC [6] [µg/mL] | MIC [7] [µg/mL] | MIC [8] [µg/mL] | MIC [9] [µg/mL] | MIC [10] [µg/mL] | MIC [11] [µg/mL] | MIC [12] [µg/mL] | further results
1 | Cc1cc(C)nc(N2CCN(c3ccc(NC(=O)C(=O)c4c(C(C)C)cc(C)n4C)cc3)CC2)c1 [Example 14, N-{4-[4-(4,6-Dimethyl-pyridin-2-yl)-piperazin-1-yl]-phenyl}-2-(3-isopropyl-1,5-dimethyl-1H-pyrrol-2-yl)-2-oxo-acetamide] | < 1 | < 1 | < 1 | < 1 | < 1 | < 1 | < 1 | < 1 | < 1 | < 1 | < 1 | < 1 | 
2 | Cc1cc(-c2ccccc2)c(C(=O)C(=O)Nc2ccc(N3CCN(C(=O)C(C)C)CC3)cc2)n1C [Example 145, 2-(1,5-Dimethyl-3-phenyl-1H-pyrrol-2-yl)-N-[4-(4-isobutyryl-piperazin-1-yl)-phenyl]-2-oxo-acetamide] | < 1 | < 1 | < 1 | < 1 | < 1 | < 1 | < 1 | < 1 | < 1 | < 1 | < 1 | 1 to 10 (≈ 2.12 to 21.2 µM) | 
3 | Cc1ccnc(N2CCN(c3ccc(NC(=O)C(=O)c4c(-c5ccccc5)cc(C)n4C)cc3)CC2)c1 [Example 40, 2-(1,5-Dimethyl-3-phenyl-1H-pyrrol-2-yl)-N-{4-[4-(4-methyl-pyridin-2-yl)-piperazin-1-yl]-phenyl}-2-oxo-acetamide] | < 1 | < 1 | < 1 | < 1 | < 1 | < 1 | < 1 | < 1 | < 1 | < 1 | < 1 | < 1 | 
4 | CCOC(=O)n1c(C)cc(-c2ccccc2)c1C(=O)C(=O)Nc1ccc(N2CCN(c3cc(C)cc(C)n3)CC2)cc1 [Example 55, 2-{4-[4-(4,6-Dimethyl-pyridin-2-yl)-piperazin-1-yl]-phenylaminooxalyl}-5-methyl-3-phenyl-pyrrole-1-carboxylic acid ethyl ester] |  |  |  |  |  |  |  |  |  |  |  |  | MIC grade, A. fumigatus 210 [1]: 2 (A grade of 2 represents an MIC of from 1 to 10 mg/L); MIC grade, A. fumigatus [2]: 2 (A grade of 2 represents an MIC of from 1 to 10 mg/L); MIC grade, A. flavus [3]: 1 (a grade of 1 represents an MIC of greater than 10 mg/L); MIC grade, A. terreus 49 [4]: 2 (A grade of 2 represents an MIC of from 1 to 10 mg/L); MIC grade, A. terreus [5]: 1 (a grade of 1 represents an MIC of greater than 10 mg/L); MIC grade, A. niger [6]: 1 (a grade of 1 represents an MIC of greater than 10 mg/L); MIC grade, A. fumigatus 210 ([7]; MIC banded into grades): 1 (a grade of 1 represents an MIC of greater than 10 mg/L); MIC grade, A. fumigatus ([8]; MIC banded into grades): 1 (a grade of 1 represents an MIC of greater than 10 mg/L); MIC grade, A. flavus [9]: 1 (a grade of 1 represents an MIC of greater than 10 mg/L); MIC grade, A. terreus 49 ([10]; MIC banded into grades): 1 (a grade of 1 represents an MIC of greater than 10 mg/L); MIC grade, A. terreus ([11]; MIC banded into grades): 1 (a grade of 1 represents an MIC of greater than 10 mg/L); MIC grade, A. niger [12]: 1 (a grade of 1 represents an MIC of greater than 10 mg/L)
5 | COCn1c(C)cc(-c2ccccc2)c1C(=O)C(=O)Nc1ccc(N2CCN(c3cc(C)cc(C)n3)CC2)cc1 [Example 62, N-{4-[4-(4,6-Dimethyl-pyridin-2-yl)-piperazin-1-yl]-phenyl}-2-(1-methoxymethyl-5-methyl-3-phenyl-1H-pyrrol-2-yl)-2-oxo-acetamide] | < 1 | < 1 | < 1 | < 1 | < 1 | < 1 | < 1 | < 1 | < 1 | < 1 | < 1 | < 1 | 
6 | COCC(C)N1CCN(c2ccc(NC(=O)C(=O)c3c(-c4ccccc4)cc(C)n3C)cc2)CC1 (stereo not drawn) [Example 151, 2-(1,5-Dimethyl-3-phenyl-1H-pyrrol-2-yl)-N-{4-[4-(2-methoxy-1-methyl-ethyl)-piperazin-1-yl]-phenyl}-2-oxo-acetamide] | < 1 | < 1 | < 1 | < 1 | < 1 | < 1 | < 1 | < 1 | < 1 | < 1 | < 1 | < 1 | 
7 | Cc1cc(C)nc(N2CCN(c3ccc(NC(=O)C(=O)c4c(-c5ccccc5)cc(C)n4Cc4cccnc4)cc3)CC2)c1 [Example 93, N-{4-[4-(4,6-Dimethyl-pyridin-2-yl)-piperazin-1-yl]-phenyl}-2-(5-methyl-3-phenyl-1-pyridin-3-ylmethyl-1H-pyrrol-2-yl)-2-oxo-acetamide] | < 1 | < 1 | 1 to 10 (≈ 1.71 to 17.1 µM) | 1 to 10 (≈ 1.71 to 17.1 µM) | 1 to 10 (≈ 1.71 to 17.1 µM) | < 1 | 1 to 10 (≈ 1.71 to 17.1 µM) | 1 to 10 (≈ 1.71 to 17.1 µM) | > 10 | > 10 | > 10 | 1 to 10 (≈ 1.71 to 17.1 µM) | 
8 | Cc1cc(-c2ccccc2)c(C(=O)C(=O)Nc2ccc(N3CCCCC3)cc2)n1C [Example 143, 2-(1,5-Dimethyl-3-phenyl-1H-pyrrol-2-yl)-2-oxo-N-(4-piperidin-1-yl-phenyl)-acetamide] | < 1 | < 1 | < 1 | < 1 | < 1 | < 1 | < 1 | < 1 | < 1 | < 1 | < 1 | < 1 | 
9 | Cc1cc(C)nc(N2CCN(c3ccc(NC(=O)C(=O)c4c(-c5ccccc5)cc(C)n4Cc4ccccn4)cc3)CC2)c1 [Example 91, N-{4-[4-(4,6-Dimethyl-pyridin-2-yl)-piperazin-1-yl]-phenyl}-2-(5-methyl-3-phenyl-1-pyridin-2-ylmethyl-1H-pyrrol-2-yl)-2-oxo-acetamide] | 1 to 10 (≈ 1.71 to 17.1 µM) | 1 to 10 (≈ 1.71 to 17.1 µM) | > 10 | 1 to 10 (≈ 1.71 to 17.1 µM) | > 10 | > 10 | > 10 | > 10 | > 10 | > 10 | > 10 | > 10 | 
